Test results published in patent US7470678B2, “Diphenylazetidinone derivatives for treating disorders of the lipid metabolism” (AstraZeneca AB, priority 2002, dated 2008).

How the values were obtained:
[1] = test system: Caco-2 cells; assay: Absorption in a Caco-2 cells model; type: in vitro ADME
Protocol: (§1) The absorption of the compounds of formula (I) was tested in a Caco-2 cells model (Gastroenterology 1989, 96, 736).

[2] = Absorption in a Caco-2 cells model; type: in vitro ADME; conditions: human, read-out: Apparent partition coefficient, Papp
Protocol: as §1

Row | Structure (SMILES) | Apparent partition coefficient; Papp [cm/s] [1] | absorption compared with ezetimibe ([1]; compared with ezetimibe) | Papp [2] [×10⁻⁶ cm/s]
1 | O=C(O)CNC(=O)COc1ccc(C2C(SCC(O)c3ccc(F)cc3)C(=O)N2c2ccccc2)cc1 [Example 24, 3-(R)-4-(R)-1-(Phenyl)-3-[2-(4-fluorophenyl)-2-hydroxyethylsulphany[-4-{4-[N-(carboxymethyl)carbamoylmethoxy]phenyl}azetidin-2-one] | 0.24 × 10^−06 cm/s | much lower absorption | –
2 | O=C1[C@H](CC[C@H](O)c2ccc(F)cc2)[C@@H](c2ccc(O)cc2)N1c1ccc(F)cc1 [Ezetimibe, reference compound] | – | – | 21
